In PMC6944208 (Journal of the American Chemical Society, 2019):
pKd: −log10 of the molar value.

Molecular target: T1, MePqqB (Methylobacterium extorquens PqqB, Me PqqB) (Methylorubrum extorquens, UniProt Q49149)
T1 sequence (Q49149 1-299): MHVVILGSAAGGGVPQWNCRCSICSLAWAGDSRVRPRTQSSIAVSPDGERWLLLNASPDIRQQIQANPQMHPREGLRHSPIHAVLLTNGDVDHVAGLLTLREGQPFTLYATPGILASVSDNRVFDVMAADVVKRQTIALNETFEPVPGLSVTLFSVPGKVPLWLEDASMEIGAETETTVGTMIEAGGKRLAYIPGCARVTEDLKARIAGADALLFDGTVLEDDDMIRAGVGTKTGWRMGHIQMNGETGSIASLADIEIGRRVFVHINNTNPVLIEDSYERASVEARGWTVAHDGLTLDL
Experiment: isothermal titration calorimetry
Assay type: binding

pKd: ~6.70
Structure (SMILES): N[C@@H](CSc1cc(C[C@H](N)C(=O)O)cc(O)c1O)C(=O)O [Cys-DOPA]
